Measured values: patent US20250163047A1, “HETEROCYCLIC COMPOUNDS, COMPOSITIONS THEREOF, AND METHODS OF TREATMENT THEREWITH” (BeiGene, Ltd., priority 2022, published 2025)

Experiments:
Cbl-b (aa36-427) = target: T1, Cbl-b (aa36-427) (Homo sapiens, UniProt Q13191); test: Co-expressed Cbl-b with BirA biochemical assay (CBLB/E2-Ub binding, HTRF); conditions: 0.6 nM Cbl-b co-expressed with BirA, HTRF; read-out: co-express CBLB/E2-Ub-binding assay IC50
T1 construct: Cbl-b (aa36-427, in-house); made in house
T1 sequence (Q13191 36-427): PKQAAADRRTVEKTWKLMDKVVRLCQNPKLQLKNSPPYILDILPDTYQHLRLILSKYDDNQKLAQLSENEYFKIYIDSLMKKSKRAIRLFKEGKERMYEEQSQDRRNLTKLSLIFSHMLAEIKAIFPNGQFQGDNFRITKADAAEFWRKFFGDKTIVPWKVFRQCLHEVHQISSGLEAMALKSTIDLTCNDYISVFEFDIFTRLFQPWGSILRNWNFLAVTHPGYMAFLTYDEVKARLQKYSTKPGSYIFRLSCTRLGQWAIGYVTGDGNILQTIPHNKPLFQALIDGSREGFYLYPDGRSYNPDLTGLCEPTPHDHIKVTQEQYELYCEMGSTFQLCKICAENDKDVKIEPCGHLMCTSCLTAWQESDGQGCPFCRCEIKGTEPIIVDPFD
From the text: (§1) The assay in the absence of a Cbl-b/Cbl inhibitor, where phosphorylation of Cbl-b/Cbl by the Src kinase allows UbcH5B-Ub to bind to Cbl-b/Cbl and brings the Bodipy-Fluorescein tagged ubiquitin in proximity to the streptavidin-terbium bound to the N-terminal biotinylated Avi-tagged Cbl-b/Cbl. […] The lack of a FRET signal indicates Cbl-b/Cbl is inhibited by the Cbl-b/Cbl inhibitor.

Cbl (aa49-434) = target: T2, Cbl (aa49-434) (Homo sapiens, UniProt P22681); test: Co-expressed Cbl with BirA biochemical assay (CBL/E2-Ub binding, HTRF); conditions: 0.6 nM Cbl co-expressed with BirA, read-out: co-express CBL/E2-Ub-binding assay IC50
T2 construct: Cbl (aa49-434, in-house); made in house
T2 sequence (P22681 49-434): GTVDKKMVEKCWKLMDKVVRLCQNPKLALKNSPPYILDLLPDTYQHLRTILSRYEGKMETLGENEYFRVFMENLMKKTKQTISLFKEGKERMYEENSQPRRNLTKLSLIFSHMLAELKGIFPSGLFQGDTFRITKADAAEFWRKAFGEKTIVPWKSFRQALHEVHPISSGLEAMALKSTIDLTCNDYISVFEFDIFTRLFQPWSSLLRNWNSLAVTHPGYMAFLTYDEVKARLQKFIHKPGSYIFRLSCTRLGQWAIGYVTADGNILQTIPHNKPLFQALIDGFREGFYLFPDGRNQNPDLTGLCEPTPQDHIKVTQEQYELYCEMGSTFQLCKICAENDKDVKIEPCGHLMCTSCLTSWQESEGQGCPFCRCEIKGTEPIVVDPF
From the text: as §1

Compound | IC50 (Cbl-b (aa36-427)) [nM] | IC50 (Cbl (aa49-434)) [nM]
Cn1cnnc1[C@]1(c2cccc(NC(=O)c3cc(CNC4(C)CC4)cn4c(Cl)cnc34)c2)C[C@H](CC#N)C1 [Compound A41, 3-chloro-N-(3-((1s, 3s)-3-(cyanomethyl)-1-(4-methyl-4H-1,2,4-triazol-3-yl)cyclobutyl)phenyl)-6-(((1-methylcyclopropyl)amino)methyl)imidazo[1,2-a]pyridine-8-carboxamide] | 0.2 | 0.9
Cc1cnc2c(C(=O)Nc3cccc([C@]4(c5nncn5C)C[C@@H](C)C4)c3)cc(CN[C@@H](C)C3CCC3)cn12 [Compound A60, 6-((((S)-1-cyclobutylethyl)amino)methyl)-3-methyl-N-(3-((1s,3R)-3-methyl-1-(4-methyl-4H-1,2,4-triazol-3-yl)cyclobutyl)phenyl)imidazo[1,2-a]pyridine-8-carboxamide] | 0.5 | 1.1
Cn1cnnc1[C@]1(c2cccc(NC(=O)c3cc(CNC4(C)CCC4)cn4c(F)cnc34)c2)C[C@H](C)C1 [Compound A44, 3-fluoro-N-(3-((1s, 3s)-3-methyl-1-(4-methyl-4H-1,2,4-triazol-3-yl)cyclobutyl)phenyl)-6-(((1-methylcyclobutyl)amino)methyl)imidazo[1,2-a]pyridine-8-carboxamide] | 1.8 | 7.7
C[C@H]1CCCN(Cc2cc(C(=O)Nc3cccc([C@]4(c5nncn5C)C[C@@H](CC#N)C4)c3)n3ncc(F)c3c2)C1 [Compound A20, 3-fluoro-5-{[(3S)-3-methylpiperidin-1-yl]methyl}-N-{3-[(1s, 3s)-3-(cyanomethyl)-1-(4-methyl-1,2,4-triazol-3-yl)cyclobutyl]phenyl}pyrazolo[1,5-a]pyridine-7-carboxamide] | 3 | 26.5
C[C@H](NCc1cc(C(=O)Nc2cccc([C@]3(c4nncn4C)C[C@@H](C)C3)c2)c2ncc(F)n2c1)C1CCC1 [Compound A65, 6-((((S)-1-cyclobutylethyl)amino)methyl)-3-fluoro-N-(3-((1s,3R)-3-methyl-1-(4-methyl-4H-1,2,4-triazol-3-yl)cyclobutyl)phenyl)imidazo[1,2-a]pyridine-8-carboxamide] | 0.9 | 2
C[C@H](NCc1cc(C(=O)Nc2cccc([C@]3(c4nncn4C)C[C@@H](C)C3)c2)c2nccn2c1)C1CCC1 [Compound A70, 6-((((S)-1-cyclobutylethyl)amino)methyl)-N-(3-((1s,3R)-3-methyl-1-(4-methyl-4H-1,2,4-triazol-3-yl)cyclobutyl)phenyl)imidazo[1,2-a]pyridine-8-carboxamide] | 1.1 | 4.1
Cn1cnnc1[C@]1(c2cccc(NC(=O)c3cc(CNC4(C)CC4)cn4c(F)cnc34)c2)C[C@H](C)C1 [Compound A45, 3-fluoro-N-(3-((1s, 3s)-3-methyl-1-(4-methyl-4H-1,2,4-triazol-3-yl)cyclobutyl)phenyl)-6-(((1-methylcyclopropyl)amino)methyl)imidazo[1,2-a]pyridine-8-carboxamide] | 1.2 | 3.5

Now from value to molecule:

IC50 (Cbl-b (aa36-427)) [nM] | IC50 (Cbl (aa49-434)) [nM] | Compound
0.8 | 0.7 | C[C@H](NCc1cc(C(=O)Nc2cccc([C@]3(c4nncn4C)C[C@@H](CC#N)C3)c2)nc2cc[nH]c12)C1CCC1 [Compound B31, N-(3-((1s,3R)-3-(cyanomethyl)-1-(4-methyl-4H-1,2,4-triazol-3-yl)cyclobutyl)phenyl)-7-((((S)-1-cyclobutylethyl)amino)methyl)-1H-pyrrolo[3,2-b]pyridine-5-carboxamide]
1.1 | 1.9 | C[C@@H]1CN(Cc2cc(C(=O)Nc3cccc([C@]4(c5nncn5C)C[C@@H](C)C4)c3)nc3c2CCC3(C)C)CC[C@@H]1F [Compound C55, 4-(((3R,4S)-4-fluoro-3-methylpiperidin-1-yl)methyl)-7,7-dimethyl-N-(3-((1s,3S)-3-methyl-1-(4-methyl-4H-1,2,4-triazol-3-yl)cyclobutyl)phenyl)-6,7-dihydro-5H-cyclopenta[b]pyridine-2-carboxamide]
0.8 | 1.5 | C[C@H]1CCCN(Cc2cc(C(=O)Nc3cccc([C@]4(Cc5nncn5C)C[C@@H](C#N)C4)c3)nc3c2OCC3(C)C)C1 [Compound C11, 3,3-dimethyl-7-{[(3S)-3-methylpiperidin-1-yl]methyl}-N-{3-[(1r, 3r)-3-cyano-1-[(4-methyl-1,2,4-triazol-3-yl)methyl]cyclobutyl]phenyl}-2H-furo[3,2-b]pyridine-5-carboxamide]
1.3 | 5.1 | C[C@H](NCc1cc(C(=O)Nc2cccc([C@]3(c4nncn4C)C[C@@H](C)C3)c2)nc2c1OCC2(C)C)C1CCCC1 [Compound C34, 7-((((S)-1-cyclopentylethyl)amino)methyl)-3,3-dimethyl-N-(3-((1s,3R)-3-methyl-1-(4-methyl-4H-1,2,4-triazol-3-yl)cyclobutyl)phenyl)-2,3-dihydrofuro[3,2-b]pyridine-5-carboxamide]
0.8 | 2.3 | Cn1cnnc1[C@]1(c2cccc(NC(=O)c3cc(CNCC4CCC4)c4[nH]cc(F)c4n3)c2)C[C@H](C)C1 [Compound B36, 7-(((cyclobutylmethyl)amino)methyl)-3-fluoro-N-(3-((1s, 3s)-3-methyl-1-(4-methyl-4H-1,2,4-triazol-3-yl)cyclobutyl)phenyl)-1H-pyrrolo[3,2-b]pyridine-5-carboxamide]
1.9 | 6.4 | C[C@H]1CCCN(Cc2cc(C(=O)Nc3cccc([C@]4(Cc5nncn5C)C[C@@H](C#N)C4)c3)nc3cc[nH]c23)C1 [Compound B7, N-(3-((1r,3S)-3-cyano-1-((4-methyl-4H-1,2,4-triazol-3-yl)methyl)cyclobutyl)phenyl)-7-(((S)-3-methylpiperidin-1-yl)methyl)-1H-pyrrolo[3,2-b]pyridine-5-carboxamide]
0.5 | 1.3 | C[C@H](NCc1cc(C(=O)Nc2cccc([C@]3(c4nncn4C)C[C@@H](C)C3)c2)nc2c(F)c[nH]c12)C1CCC1 [Compound B38, 7-((((S)-1-cyclobutylethyl)amino)methyl)-3-fluoro-N-(3-((1s,3R)-3-methyl-1-(4-methyl-4H-1,2,4-triazol-3-yl)cyclobutyl)phenyl)-1H-pyrrolo[3,2-b]pyridine-5-carboxamide]
1.8 | 4.7 | CC(C)CNCc1cc(C(=O)Nc2cncc([C@]3(c4nncn4C)C[C@@H](C)C3)c2)nc2cc[nH]c12 [Compound B2, 7-((isobutylamino)methyl)-N-(5-((1s, 3s)-3-methyl-1-(4-methyl-4H-1,2,4-triazol-3-yl)cyclobutyl)pyridin-3-yl)-1H-pyrrolo[3,2-b]pyridine-5-carboxamide]
4 | 6.9 | C[C@H]1CCCN(Cc2cc(C(=O)Nc3cccc(C4(Cc5nncn5C)COC4)c3)nc3cc[nH]c23)C1 [Compound B6, (S)—N-(3-(3-((4-methyl-4H-1,2,4-triazol-3-yl)methyl)oxetan-3-yl)phenyl)-7-((3-methylpiperidin-1-yl)methyl)-1H-pyrrolo[3,2-b]pyridine-5-carboxamide]
3.2 | 14 | Cn1cnnc1[C@]1(c2cncc(NC(=O)c3cc(CNC4(C)CCC4)c4[nH]cc(F)c4n3)c2)C[C@H](C)C1 [Compound B49, 3-fluoro-N-(5-((1s, 3s)-3-methyl-1-(4-methyl-4H-1,2,4-triazol-3-yl)cyclobutyl)pyridin-3-yl)-7-(((1-methylcyclobutyl)amino)methyl)-1H-pyrrolo[3,2-b]pyridine-5-carboxamide]
